Laboratory results published in patent US5977065A, “Bacterial nitroreductase for the reduction of CB1954 and analogues thereof to a cytotoxic form” (Cancer Research Campaign Technology Limited, priority 1991, dated 1999).

How the values were obtained:
[1] = test system: V79 cells; test: Survival (colony-forming ability) of V79 cells treated with CB 1954 in the presence of E. coli B nitroreductase (Table 4); format: cell-based, Hamster; conditions: 500 μM NADH
Experimental: E. coli B nitroreductase. All treatments were for 2 hours at 37°
cells were then plated out for their resulting colony-forming ability.
nitroreductase concentration was 2 μg/ml and NADH was used as a […]

[2] = target: T1, E. coli B nitroreductase (Escherichia coli, UniProt P38489); test: Enzyme kinetic and inhibition studies; format: biochemical
T1 construct: endogenous in cells; host or cells: E. coli B cell paste; endogenous enzyme purified by Phenyl-Sepharose and Q-Sepharose chromatography, not recombinant
T1 sequence (P38489 whole entry): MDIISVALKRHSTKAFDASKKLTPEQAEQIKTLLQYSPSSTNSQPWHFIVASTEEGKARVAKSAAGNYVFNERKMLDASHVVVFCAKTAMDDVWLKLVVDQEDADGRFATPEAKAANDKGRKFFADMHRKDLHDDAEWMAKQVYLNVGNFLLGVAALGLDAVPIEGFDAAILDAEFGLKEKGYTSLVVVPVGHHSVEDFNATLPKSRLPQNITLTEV
Experimental: Protein concentration was determined using the a conventional protein assay (Bio-Rad) calibrated against bovine serum albumin.

[3] = target: T2, Walker NAD(P)H dehydrogenase (quinone) EC 1.6.99.2 (Rattus norvegicus, UniProt P05982); test: Enzyme kinetic studies; format: biochemical
T2 construct: the enzyme isolated from the Walker tumour, EC.1.6.99.2; from tissue; host or cells: Walker tumour (Walker cell)
T2 sequence (P05982 2-274 limits assumed): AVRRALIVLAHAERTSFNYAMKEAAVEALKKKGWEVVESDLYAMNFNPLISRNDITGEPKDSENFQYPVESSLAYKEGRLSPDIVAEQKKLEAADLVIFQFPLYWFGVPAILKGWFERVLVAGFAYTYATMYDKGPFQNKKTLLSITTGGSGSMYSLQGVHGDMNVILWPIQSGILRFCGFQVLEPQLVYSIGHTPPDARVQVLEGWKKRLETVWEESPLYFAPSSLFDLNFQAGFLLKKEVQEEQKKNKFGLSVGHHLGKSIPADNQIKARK
Experimental: Quinone reductase activities were assayed by a spectrophotometric method using menadione as a substrate and cytochrome c as a terminal electron acceptor as described in Knox et al, Biochem. Pharmacol., 37, 4671-4677, 1988. Initial rates of reaction were determined by linear regression analysis (r>0.995) and kinetic parameters determined from the resulting plots as described by Roberts et al, Biochem. Pharmacol. 38, 4137-4143, 1989. Protein concentration was determined using the a conventional protein assay (Bio-Rad) calibrated against bovine serum albumin.
Kinetic parameters for the E. coli nitroreductase and Walker NAD(P)H, dehydrogenase (quinone) EC. […] The absolute rates of reduction of CB 1954 (i.e. under saturating conditions) by the two enzymes is their kcat values and this is 90 fold higher for the E. coli nitroreductase.

[4] = test system: MAWI cells; test: Survival (colony forming ability) of MAWI cells with enzyme-activated prodrugs (Table 7); format: cell-based, human; conditions: 500 μM NADH alone
Experimental: The effect of enzyme-activated prodrugs on the survival of MAWI
cells. 1 ml volumes of MAWI cells (2 × 10^5 /ml) were
with 50 μM prodrug, 500 μM NADH, and 10 μg/ml the enzyme of
Example 1. After a 2 hour incubation at 37° C., the cells were
harvested and assayed for their colony forming ability, and the
supernatant assayed for the concentration of remaining prodrug

[5] = test system: V79 cells; test: Survival (colony forming ability) of V79 cells with enzyme-activated prodrugs (Table 8); format: cell-based
Experimental: (§1) Generation of cytotoxicity by the action of the E. coli nitroreductase of Example 1 upon the prodrugs 4-[bis(2-chloroethyl)amino]phenylcarbamic acid 4'-nitrobenzyl ester (I where R^1 NH2 =III) and N-4-nitrobenzyloxy-carbonyl-actinomycin D (V) are shown in Table 8.
(§2) The effect of enzyme-activated prodrugs on the survival of V79
(§3) cells. 1 ml volumes of V79 cells (2 × 10^5 /ml) were incubated
(§4) with prodrug, 500 μM NADH, and 10 μg/ml enzyme. After a 2 hour
(§5) incubation at 37° C., the cells were harvested and assayed for
(§6) their colony forming ability, and the supernatant assayed for
(§7) the concentration of remaining prodrug by HPLC.

[6] = target: T3, E. coli nitroreductase (Escherichia coli, UniProt P38489); test: % drug reduction in the V79 incubations, remaining prodrug by HPLC (Table 8); format: biochemical
T3 construct: endogenous in cells; host or cells: E. coli B cell paste; endogenous enzyme purified by Phenyl-Sepharose and Q-Sepharose chromatography, not recombinant
T3 sequence (P38489 whole entry): as the sequence (P38489 whole entry) above
Experimental: as §1, §2, §3, §4, §5, §6, §7

[7] = target: T1, E. coli B nitroreductase; test: Formation of actinomycin D by the nitroreductase upon prodrug V (HPLC); format: biochemical; conditions: V 100 μM, 500 μM NADH, enzyme 2 μg/ml, pH7, 37° C.
Experimental: Disappearance of the prodrug N-4-nitro-benzyloxycarbonyl-actinomycin D (V) and formation of actinomycin D during incubation with the E. coli B nitroreductase of Example 1 is shown in FIG. 2.

[8] = In vivo toxicity of prodrug in mice; conditions: for Weight as % of Day 0, Day 2 / Weight as % of Day 0, Day 3 / Weight as % of Day 0, Day 7 / Weight as % of Day 0, Day 9: mice
Experimental: The actinomycin D prodrug (AMDPD) of formula V was tested for toxicity in mice. Groups of 3 mice were given 1, 10 or 100 mg/kg body weight i.p. of AMPD, and two further groups of 3 mice were given 1 and 10 mg/kg body weight i.p. of actinomycin D (AMD) dissolved in arachis oil. A further group of 3 mice were untreated, and a final group of 3 mice were given arachis oil i.p. only.
The body weight of the mice were monitored over 9 days. All mice treated with 10 mg/kg of AMD were dead by day 1. […] In practice, the toxicity of AMDPD is likely to be even lower, since the preparation of AMDPD used contains about 1% unconverted AMD.

[9] = target: T1, E. coli B nitroreductase; test: Formation of mitomycin C by the nitroreductase upon prodrug VII (HPLC); format: biochemical; conditions: VII 100 μM, 500 μM NADH, enzyme 5 μg/ml, pH7, 37° C.
Experimental: Prodrug VII (100 μM) and cofactor (500 μM NADH) were incubated with enzyme (5 μg/ml E. coli B nitroreductase of Example 1) in 10 mM sodium phosphate buffer (pH7) in air at 37° C. At various times aliquots (10 μl) were injected onto a Partisphere C18 reverse-phase (150×4.7mm) HPLC column and eluted isocratically (2.0 ml/min) with 50% methanol in water. The eluate was continuously monitored for absorption at 260 and 340 nm and the concentration of the drugs calculated by integration of the peak corresponding to the compound on the HPLC trace.

[10] = NR 10 μg/ml + 1 μM prodrug + 500 μM NADH

Q: What does the source list for `NC(=O)C1=CN([C@@H]2O[C@H](COP(=O)(O)OP(=O)(O)OC[C@H]3O[C@@H](n4cnc5c(N)ncnc54)[C@H](O)[C@@H]3O)[C@@H](O)[C@H]2O)C=CC1` [NADH]?
A: % SURVIVAL [1]: 100%; Km of the nitroreductase for NADH less than the Walker enzyme [2]: about 10 fold; Km [3]: 75 µM; % SURVIVAL [4]: 100%; % SURVIVAL ([5]; 500 μM NADH alone): 100%

Q: For `Cc1c2oc3c(C)ccc(C(=O)NC4C(=O)NC(C(C)C)C(=O)N5CCCC5C(=O)N(C)CC(=O)N(C)C(C(C)C)C(=O)OC4C)c3nc-2c(C(=O)NC2C(=O)NC(C(C)C)C(=O)N3CCCC3C(=O)N(C)CC(=O)N(C)C(C(C)C)C(=O)OC2C)c(NC(=O)OCc2ccc([N+](=O)[O-])cc2)c1=O` (stereo not drawn) [V, N-4-Nitrobenzyloxycarbonyl-actinomycin D], which “% SURVIVAL” value ([5]; 1 μM prodrug alone) is on record?
A: 98.3%

Q: And the “% SURVIVAL” value ([5]; 10 μM prodrug alone)?
A: 39.3%

Q: And the “% SURVIVAL” value [5, 10]?
A: 27.4%

Q: What about the “% DRUG REDUCTION” value ([6]; 1 μM prodrug alone) of the same molecule?
A: < 1.0%

Q: And the “% DRUG REDUCTION” value ([6]; 10 μM prodrug alone)?
A: < 1.0%

Q: What about the “% DRUG REDUCTION” value [6, 10] of the same molecule?
A: 90.5%

Q: What about the “% DRUG REDUCTION” value ([6]; NR 10 μg/ml + 10 μM prodrug + 500 μM NADH) of the same molecule?
A: 93%

Q: What about the “release of actinomycin D from the prodrug” value [7] of the same molecule?
A: Only when the enzyme was present was actinomycin D released

Q: What about the “Weight as % of Day 0, Day 2” value ([8]; dose 1.0 mg/kg i.p.) of the same molecule?
A: 102%

Q: And the “Weight as % of Day 0, Day 3” value ([8]; dose 1.0 mg/kg i.p.)?
A: 101%

Q: And the “Weight as % of Day 0, Day 7” value ([8]; dose 1.0 mg/kg i.p.)?
A: 101%

Q: What about the “Weight as % of Day 0, Day 9” value ([8]; dose 1.0 mg/kg i.p.) of the same molecule?
A: 103%

Q: And the “Weight as % of Day 0, Day 2” value ([8]; dose 10 mg/kg i.p.)?
A: 109%

Q: What about the “Weight as % of Day 0, Day 3” value ([8]; dose 10 mg/kg i.p.) of the same molecule?
A: 105%

Q: What about the “Weight as % of Day 0, Day 7” value ([8]; dose 10 mg/kg i.p.) of the same molecule?
A: 108%

Q: And the “Weight as % of Day 0, Day 9” value ([8]; dose 10 mg/kg i.p.)?
A: 110%

Q: What about the deaths ([8]; dose 100 mg/kg i.p., groups of 3 mice, Day 2) of the same molecule?
A: 1 dead

Q: And the “Weight as % of Day 0, Day 2” value ([8]; dose 100 mg/kg i.p.)?
A: 96.4%

Q: What about the “Weight as % of Day 0, Day 3” value ([8]; dose 100 mg/kg i.p.) of the same molecule?
A: 95.6%

Q: What about the “Weight as % of Day 0, Day 7” value ([8]; dose 100 mg/kg i.p.) of the same molecule?
A: 95%

Q: What about the “Weight as % of Day 0, Day 9” value ([8]; dose 100 mg/kg i.p.) of the same molecule?
A: 96%

Q: With `COC12C(COC(N)=O)C3=C(C(=O)C(C)=C(N)C3=O)N1CC1C2N1C(=O)OCc1ccc([N+](=O)[O-])cc1` (stereo not drawn) [VII, N-4-Nitrobenzyloxycarbonyl-mitomycin C] as the molecule, how does the “release of mitomycin C from the prodrug” value [9] read?
A: Only in the presence of the enzyme is mitomycin C released
